Test results taken from patent publication US9656959B2, “Substituted pyridines as sodium channel blockers” (Purdue Pharma L.P., priority 2010, dated 2017).
Where two headings read alike, the source gives them in different places.

Legend:
[1] = biological target: hNav1.7 (Homo sapiens (Human), UniProt Q15858); test: Electrophysiology (EP) assay, whole-cell patch clamp; assay type: cell-based; settings: hNav1.7 HEK-293 cells; for Ki: affinity for the inactivated state of the channel, read-out: Nav1.7 Activity (μM) EP assay Ki; for Kd: resting block dissociation constant, read-out: Nav1.7 Activity (μM) EP assay Kr
Protocol: The hNav1.7 expressing HEK-293 cells were plated on 35 mm culture dishes pre-coated with poly-D-lysine in standard DMEM culture media (Mediatech, Inc., Herndon, Va.) and incubated in a 5% CO2 incubator at 37° C. Cultured cells were used approximately 12-48 hours after plating.
On the day of experimentation, the 35 mm dish was placed on the stage of an inverted microscope equipped with a perfusion system that continuously perfuses the culture dish with fresh recording media. A gravity driven superfusion system was used to apply test solutions directly to the cell under evaluation. This system consists of an array of glass pipette connected to a motorized horizontal translator. The outlet of the shooter was positioned approximately 100 μm from the cell of interest.
Whole cell currents were recorded using the whole-cell patch clamp configuration using an Axopatch 200B amplifier (Axon Instruments, Foster City Calif.), 1322A A/D converter (Axon Instruments) and pClamp software (v. 8; Axon Instruments) and stored on a personal computer. Gigaseals were formed and the whole-cell configuration was established in voltage clamp mode, and membrane currents generated by hNav1.7 were recorded in gap-free mode. Borosilicate glass pipettes have resistance values between 1.5 and 2.0 MΩ when filled with pipette solution and series resistance (<5 MΩ) was compensated 75-80%. Signals were sampled at 50 kHz and low pass filtered at 3 kHz.
After establishing the whole-cell configuration in voltage clamp mode, voltage protocols were run to establish the 1) test potential, 2) holding potential, and 3) the conditioning potential for each cell.
After establishing the whole-cell configuration in voltage clamp mode, a standard I-V protocol was run to determine the potential at which the maximal current (Imax) is elicited. This potential was the test potential (Vt). […] This protocol also permitted determination of the holding potential at which all channels are in the resting state.
For compounds causing significant retardation of recovery from inactivation, an estimate of the affinity for the inactivated state of the channel (Ki) was generated using the following protocol. From the negative, no residual inactivation, holding potential, the cell was depolarized to the conditioning voltage for 2-5 seconds, returned to the negative holding potential for 10-20 ms to relieve fast inactivation and then depolarized to the test potential for ˜15 ms. This voltage protocol was repeated every 10-15 seconds, first to establish a baseline in the absence of the test compound, then in the presence of the test compound.
After a stable baseline was established, the test compound was applied and block of the current elicited by the test pulse assessed. In some cases, multiple cumulative concentrations were applied to identify a concentration that blocked between 40-60% of this current. Washout of the compound was attempted by superfusing with control solution once steady-state block was observed. An estimate of the K, was calculated as follows: Ki=[drug]*{FR/(1−FR)}, Eq. 1
where [drug] is the concentration of a drug, and FR=I(after drug)/I(control), Eq. 2 where I is the peak current amplitude. If multiple concentrations were used, Ki was determined from the fit of a logistic equation to FRs plotted against corresponding drug concentrations.
In the alternative, the voltage clamp protocol to examine hNav1.7 currents was as follows. First, the standard current-voltage relationship was tested by pulsing the cell from the holding voltage (Vh) of −120 mV by a series of 5 msec long square-shaped test pulses incrementing in +10 mV steps over the membrane voltage range of −90 mV to +60 mV at the pace of stimulation of 0.5 Hz. This procedure determines the voltage that elicits the maximal current (Vmax). […]

[2] = biological target: human Nav1.7 (Homo sapiens (Human), UniProt Q15858); test: FLIPR or FLIPR TETRA sodium dye assay with KCl and test article pre-incubation; assay type: cell-based
[3] = read-out: Nav1.7 Activity (μM) FLIPR assay IC50 (μM) ± SEM
[4] = recombinant Nav1.7/HEK293 cells, CoroNa Green sodium dye, veratridine + scorpion venom agonists, ± SEM

human Nav1.7, sequence (Q15858 with tags, fused parts or gaps limits assumed): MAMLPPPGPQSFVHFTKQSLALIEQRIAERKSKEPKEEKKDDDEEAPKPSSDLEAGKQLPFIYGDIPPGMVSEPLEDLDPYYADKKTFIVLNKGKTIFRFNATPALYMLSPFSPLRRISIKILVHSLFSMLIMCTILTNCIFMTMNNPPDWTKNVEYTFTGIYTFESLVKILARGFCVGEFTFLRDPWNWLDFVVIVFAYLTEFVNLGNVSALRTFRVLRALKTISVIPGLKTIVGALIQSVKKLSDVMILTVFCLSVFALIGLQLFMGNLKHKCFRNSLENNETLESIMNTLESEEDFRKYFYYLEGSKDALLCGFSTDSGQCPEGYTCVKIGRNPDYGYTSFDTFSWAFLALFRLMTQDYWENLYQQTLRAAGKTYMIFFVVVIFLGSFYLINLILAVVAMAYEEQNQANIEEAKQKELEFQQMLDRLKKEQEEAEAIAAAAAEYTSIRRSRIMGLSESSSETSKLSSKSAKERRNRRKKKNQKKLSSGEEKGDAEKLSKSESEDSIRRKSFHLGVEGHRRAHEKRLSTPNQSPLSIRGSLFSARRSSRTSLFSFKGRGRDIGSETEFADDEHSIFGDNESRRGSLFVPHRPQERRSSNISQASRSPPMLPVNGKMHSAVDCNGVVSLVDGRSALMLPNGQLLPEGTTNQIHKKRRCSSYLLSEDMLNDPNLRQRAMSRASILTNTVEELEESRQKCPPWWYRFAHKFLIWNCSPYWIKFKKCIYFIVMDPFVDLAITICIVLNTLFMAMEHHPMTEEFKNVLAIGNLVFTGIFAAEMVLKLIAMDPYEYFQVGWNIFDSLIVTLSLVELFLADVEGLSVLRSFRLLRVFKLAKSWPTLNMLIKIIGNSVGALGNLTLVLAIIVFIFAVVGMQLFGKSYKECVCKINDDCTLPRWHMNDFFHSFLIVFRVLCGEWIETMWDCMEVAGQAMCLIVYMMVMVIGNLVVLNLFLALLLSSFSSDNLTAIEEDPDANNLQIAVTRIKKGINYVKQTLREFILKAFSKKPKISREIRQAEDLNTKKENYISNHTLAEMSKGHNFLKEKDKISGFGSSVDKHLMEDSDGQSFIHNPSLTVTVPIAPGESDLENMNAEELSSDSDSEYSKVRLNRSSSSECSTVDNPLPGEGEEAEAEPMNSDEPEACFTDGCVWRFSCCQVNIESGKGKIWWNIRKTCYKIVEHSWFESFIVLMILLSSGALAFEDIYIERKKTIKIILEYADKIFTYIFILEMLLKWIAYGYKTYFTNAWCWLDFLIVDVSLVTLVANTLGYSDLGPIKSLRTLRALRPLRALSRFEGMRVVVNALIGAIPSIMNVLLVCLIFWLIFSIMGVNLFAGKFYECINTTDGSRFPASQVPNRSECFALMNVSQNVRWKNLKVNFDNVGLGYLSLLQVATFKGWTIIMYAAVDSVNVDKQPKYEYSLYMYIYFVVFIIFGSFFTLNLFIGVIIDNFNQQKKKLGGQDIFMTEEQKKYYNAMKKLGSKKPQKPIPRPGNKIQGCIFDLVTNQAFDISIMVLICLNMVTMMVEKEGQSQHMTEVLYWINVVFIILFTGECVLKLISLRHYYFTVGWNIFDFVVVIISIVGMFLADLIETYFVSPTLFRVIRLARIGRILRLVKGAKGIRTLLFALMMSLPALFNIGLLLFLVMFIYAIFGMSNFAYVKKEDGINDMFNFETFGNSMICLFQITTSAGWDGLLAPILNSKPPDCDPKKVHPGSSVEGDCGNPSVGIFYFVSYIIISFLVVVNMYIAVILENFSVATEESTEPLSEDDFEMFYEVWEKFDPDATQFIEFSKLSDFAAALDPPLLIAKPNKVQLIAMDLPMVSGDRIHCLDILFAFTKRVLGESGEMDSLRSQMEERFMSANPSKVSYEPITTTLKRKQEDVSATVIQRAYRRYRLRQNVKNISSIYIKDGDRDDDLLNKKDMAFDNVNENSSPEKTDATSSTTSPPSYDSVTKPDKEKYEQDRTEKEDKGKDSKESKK
hNav1.7, sequence (Q15858 other isoform, or with tags, fused parts or gaps): as the sequence (Q15858 with tags, fused parts or gaps limits assumed) above

SMILES | Ki [1] [µM] | Kd [1] [µM] | IC50 [2, 3] [µM] | IC50 [2, 4] [µM]
O=C(N[C@@H](CO)C(=O)Nc1cccc(-c2ccc(Oc3ccc(F)cc3)cc2)n1)c1cccnc1 [Compound 56, N-((S)-1-{6-[4-(4-Fluoro-phenoxy)-phenyl]-pyridin-2-ylcarbamoyl}-2-hydroxy-ethyl)-nicotinamide] | 0.195 ± 0.07 | 32.2 ± 8.38 | 0.14 ± 0.05 | 
N[C@@H](CO)C(=O)Nc1cccc(-c2ccc(Oc3ccc(F)cc3)cc2)n1 [Compound 70, (S)-2-Amino-N-{6-[4-(4-fluoro-phenoxy)-phenyl]-pridin-2-yl}-3-hydroxy-propionamide] | 0.046 | 0.803 ± 0.2 |  | 0.27 ± 0.032
CC(=O)N[C@@H](CC(C)C)C(=O)Nc1cccc(-c2ccc(Oc3ccc(F)cc3)cc2)n1 [Compound 3, (S)-2-acetamido-N-(6-(4-(4-fluorophenoxy)phenyl)pyridin-2-yl)-4-methylpentanamide] | 0.194 ± 0.07 |  |  | 0.042 ± 0.02
CC(C)C[C@H](NC(=O)NC(C)(C)C)C(=O)Nc1cccc(-c2ccc(Oc3ccc(F)cc3)cc2)n1 [Compound 13, (S)-2-(3-(tert-butyl)ureido)-N-(6-(4-(4-fluorophenoxy)phenyl)pyridin-2-yl)-4-methylpentanamide] | 0.075 ± 0.02 | 10.2 ± 0.2 |  | 0.075 ± 0.017
CC(C)C[C@H](NC(N)=O)C(=O)Nc1cccc(-c2ccc(Oc3ccc(F)cc3)cc2)n1 [Compound 12, (S)-N-(6-(4-(4-fluorophenoxy)phenyl)pyridin-2-yl)-4-methyl-2-ureidopentanamide] | 0.257 ± 0.06 | 5.06 |  | 0.096 ± 0.004
O=C(Nc1cccc(-c2ccc(Oc3ccc(F)cc3)cc2)n1)C(O)CO (stereo not drawn) [Compound 72, N-(6-(4-(4-fluorophenoxy)phenyl)pyridin-2-yl)-2,3-dihydroxypropanamide] | 0.143 ± 0.03 | 8.91 ± 1.21 |  | 0.074
O=C(N[C@@H](Cc1c[nH]cn1)C(=O)Nc1cccc(-c2ccc(Oc3ccc(F)cc3)cc2)n1)C1CC1 [Compound 33, (S)-N-(1-((6-(4-(4-fluorophenoxy)phenyl)pyridin-2-yl)amino)-3-(1H-imidazol-4-yl)-1-oxopropan-2-yl)cyclopropanecarboxamide] | 0.206 ± 0.04 | 5.31 ± 0.56 | 0.11 ± 0.02 | 
CC(=O)N[C@@H](Cc1ccccc1)C(=O)Nc1cccc(-c2ccc(Oc3ccc(F)cc3)cc2)n1 [Compound 4, (S)-2-acetamido-N-(6-(4-(4-fluorophenoxy)phenyl)pyridin-2-yl)-3-phenylpropanamide] | 0.13 ± 0.03 |  |  | 0.064 ± 0.02
CS(=O)(=O)N[C@@H](Cc1c[nH]cn1)C(=O)Nc1cccc(-c2ccc(Oc3ccc(F)cc3)cc2)n1 [Compound 38, (S)-N-(6-(4-(4-fluorophenoxy)phenyl)pyridin-2-yl)-3-(1H-imidazol-4-yl)-2-(methylsulfonamido)propanamide] | 0.019 ± 0.01 | 1.2 ± 0.31 | 0.14 ± 0.03 | 
CC(C)C[C@H](NC(=O)c1ccccn1)C(=O)Nc1cccc(-c2ccc(Oc3ccc(F)cc3)cc2)n1 [Compound 7, (S)-N-(1-((6-(4-(4-fluorophenoxy)phenyl)pyridin-2-yl)amino)-4-methyl-1-oxopentan-2-yl)picolinamide] | 0.059 ± 0.01 | 18 ± 1 | 0.067 ± 0.007 | 
O=C(CO)N[C@@H](CO)C(=O)Nc1cccc(-c2ccc(Oc3ccc(F)cc3)cc2)n1 [Compound 60, (S)-N-{6-[4-(4-Fluoro-phenoxy)-phenyl]-pyridin-2-yl}-3-hydroxy-2-(2-hydroxy-acetylamino)-propionamide] | 0.113 ± 0.05 | 4.94 ± 0.81 |  | 0.46 ± 0.08
N[C@@H](Cc1c[nH]cn1)C(=O)Nc1cccc(-c2ccc(Oc3ccc(F)cc3)cc2)n1 [Compound 31, (S)-2-amino-N-(6-(4-(4-fluorophenoxy)phenyl)pyridin-2-yl)-3-(1H-imidazol-4-yl)propanamide] |  |  | 0.18 ± 0.02 | 
CC(=O)N[C@@H](Cc1c[nH]cn1)C(=O)Nc1cccc(-c2ccc(Oc3ccc(F)cc3)cc2)n1 [Compound 32, (S)-2-acetamido-N-(6-(4-(4-fluorophenoxy)phenyl)pyridin-2-yl)-3-(1H-imidazol-4-yl)propanamide] | 0.025 | 0.58 ± 0.1 | 0.086 ± 0.02 | 
CC(C)(C)OC(=O)N[C@@H](CC(N)=O)C(=O)Nc1cccc(-c2ccc(Oc3ccc(F)cc3)cc2)n1 [Compound 41, (S)-tert-butyl (4-amino-1-((6-(4-(4-fluorophenoxy)phenyl)pyridin-2-yl)amino)-1,4-dioxobutan-2-yl)carbamate] |  |  | 0.066 ± 0.008 | 
CC(C)(C)OC(=O)N[C@@H](CC(=O)Nc1cccc(-c2ccc(Oc3ccc(F)cc3)cc2)n1)C(N)=O [Compound 40, (S)-tert-butyl (1-amino-4-((6-(4-(4-fluorophenoxy)phenyl)pyridin-2-yl)amino)-1,4-dioxobutan-2-yl)carbamate] |  |  | 0.13 ± 0.03 | 
O=C1NCCN1CCNc1cc([C@H](O)CO)cc(-c2ccc(Oc3ccc(F)cc3)cc2)n1 [Compound 66, (S)-1-(2-((4-(1,2-dihydroxyethyl)-6-(4-(4-fluorophenoxy)phenyl)pyridin-2-yl)amino)ethyl)imidazolidin-2-one] | 1.37 ± 0.17 |  |  | 5 ± 0.88
